According to patent US20220281831A1, “FUSED-GLUTARIMIDE CRBN LIGANDS AND USES THEREOF” (Kymera Therapeutics, Inc., priority 2019, published 2022):

Biological target: His-tagged CRBN-DDB1 complex (Homo sapiens, UniProt Q96SW2)
Test: Time-Resolved Fluorescence Resonance Energy Transfer (TR-FRET / HTRF) CRBN binding assay, displacement of Cy5-labeled thalidomide
Conditions: His-CRBN-DDB1, Cy5-thalidomide 8 nM, 1 hour room temperature
Protocol: Time-Resolved Fluorescence Resonance Energy Transfer (TR-FRET) Assay.
Equal volumes of His-tagged CRBN-DDB1 complex (56 nM) was mixed with Eu-cryptate labeled Anti-6HIS-monoclonal antibody (50× dilution from the commercial stock solution, Vender: Cisbio, Cat. #61HI2KLA) in a final buffer containing 20 mM HEPES pH 7.0, 150 mM NaCl, 0.005% Tween-20. […] The mixture were incubated at room temperature for 1 hour. FRET signals were measured on an EnVision plate reader (Perkin Elmer) by exciting at 340 nm and recording emission at both 615 nm as no FRET control and 665 nm as the FRET signals with a 60 microsecond delay. FRET efficiency was calculated as the ratio of fluorescent signals at […]. Quantitative loss of FRET efficiency as a function of compound concentrations was fitted by a four-parameter Logistic Function using GraphPad Prism 7.0 and the IC50 values were reported for each compound.
The compound numbers correspond to the compound numbers in Table 1.

Chain of His-tagged CRBN-DDB1 complex (Q96SW2 whole entry): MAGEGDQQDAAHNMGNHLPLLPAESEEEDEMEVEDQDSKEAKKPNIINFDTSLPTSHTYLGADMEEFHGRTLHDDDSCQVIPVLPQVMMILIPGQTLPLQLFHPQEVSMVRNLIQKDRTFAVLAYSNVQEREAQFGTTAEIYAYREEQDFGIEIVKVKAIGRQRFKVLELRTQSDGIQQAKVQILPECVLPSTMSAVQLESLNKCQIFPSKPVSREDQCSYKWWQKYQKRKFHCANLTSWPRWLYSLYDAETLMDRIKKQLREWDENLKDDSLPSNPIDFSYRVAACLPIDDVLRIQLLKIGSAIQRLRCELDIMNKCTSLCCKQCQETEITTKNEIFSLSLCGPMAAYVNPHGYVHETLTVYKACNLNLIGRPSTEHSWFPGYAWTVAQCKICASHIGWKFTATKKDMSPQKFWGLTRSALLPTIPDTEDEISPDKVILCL
Chain of His-tagged CRBN-DDB1 complex (Q16531 whole entry partner): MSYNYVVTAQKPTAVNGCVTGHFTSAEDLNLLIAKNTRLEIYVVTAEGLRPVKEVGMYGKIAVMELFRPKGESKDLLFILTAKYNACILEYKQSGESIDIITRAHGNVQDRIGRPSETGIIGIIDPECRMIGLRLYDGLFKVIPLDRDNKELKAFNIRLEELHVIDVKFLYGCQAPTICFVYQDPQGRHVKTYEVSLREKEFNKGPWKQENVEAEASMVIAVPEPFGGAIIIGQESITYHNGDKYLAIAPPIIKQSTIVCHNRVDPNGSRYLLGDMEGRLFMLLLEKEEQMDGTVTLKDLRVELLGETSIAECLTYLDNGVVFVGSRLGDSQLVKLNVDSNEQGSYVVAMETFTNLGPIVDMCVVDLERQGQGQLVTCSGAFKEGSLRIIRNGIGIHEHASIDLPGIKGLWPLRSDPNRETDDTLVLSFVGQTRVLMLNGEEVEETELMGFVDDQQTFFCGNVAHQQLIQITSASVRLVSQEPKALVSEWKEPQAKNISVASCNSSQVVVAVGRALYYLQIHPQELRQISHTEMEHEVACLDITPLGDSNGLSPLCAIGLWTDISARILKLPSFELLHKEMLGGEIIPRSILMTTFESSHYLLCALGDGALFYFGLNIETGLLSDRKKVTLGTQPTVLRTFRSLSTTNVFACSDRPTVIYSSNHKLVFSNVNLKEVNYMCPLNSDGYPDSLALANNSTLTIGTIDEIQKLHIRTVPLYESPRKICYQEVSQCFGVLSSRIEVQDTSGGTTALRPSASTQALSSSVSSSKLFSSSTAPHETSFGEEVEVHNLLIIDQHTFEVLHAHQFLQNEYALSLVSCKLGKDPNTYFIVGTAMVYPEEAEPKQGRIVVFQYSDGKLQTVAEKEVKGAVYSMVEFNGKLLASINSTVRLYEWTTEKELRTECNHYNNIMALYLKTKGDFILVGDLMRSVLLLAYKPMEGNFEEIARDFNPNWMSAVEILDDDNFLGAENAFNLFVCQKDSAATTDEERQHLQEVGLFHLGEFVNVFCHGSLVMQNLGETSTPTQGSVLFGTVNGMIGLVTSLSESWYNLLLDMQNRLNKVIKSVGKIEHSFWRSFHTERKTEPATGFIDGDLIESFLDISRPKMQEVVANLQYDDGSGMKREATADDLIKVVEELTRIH

Row | Compound | IC50
1 | O=C1NC(=O)[C@@H]2CN(c3cccc4cnccc34)C[C@H]12 [Compound I-141] | > 100 µM
2 | O=C1NC(=O)[C@@H]2CN(c3ccc(OC(F)(F)F)cc3)C[C@H]12 [Compound I-142] | > 100 µM
3 | O=C(O)c1cccc(N2C[C@@H]3C(=O)NC(=O)[C@@H]3C2)c1 [Compound I-143] | > 100 µM
4 | CS(=O)(=O)c1ccc(N2C[C@@H]3C(=O)NC(=O)[C@@H]3C2)cc1 [Compound I-144] | > 100 µM
5 | CC(C)(C)OC(=O)NCc1ccc(N2C[C@@H]3C(=O)NC(=O)[C@@H]3C2)cc1 [Compound I-145] | > 100 µM
6 | O=C1NC(=O)[C@@H]2CN(c3cccc4cccnc34)C[C@H]12 [Compound I-146] | > 100 µM
7 | O=C1NC(=O)[C@@H]2CN(c3ccc(F)cc3Cl)C[C@H]12 [Compound I-147] | > 100 µM
8 | N#Cc1ccccc1N1C[C@@H]2C(=O)NC(=O)[C@@H]2C1 [Compound I-148] | > 100 µM
9 | O=Cc1ccc(N2C[C@@H]3C(=O)NC(=O)[C@@H]3C2)cc1 [Compound I-149] | > 100 µM
10 | Nc1ccc(N2C[C@@H]3C(=O)NC(=O)[C@@H]3C2)cc1 [Compound I-150] | > 100 µM
11 | O=C1NC(=O)[C@@H]2CN(c3ccccc3Cl)C[C@H]12 [Compound I-153] | > 100 µM
12 | NC(=O)c1ccc(N2C[C@@H]3C(=O)NC(=O)[C@@H]3C2)cc1 [Compound I-154] | > 100 µM
13 | COc1ccc2cc(N3C[C@@H]4C(=O)NC(=O)[C@@H]4C3)ccc2c1 [Compound I-155] | > 100 µM
14 | O=C1NC(=O)[C@@H]2CN(c3ccc4c(c3)CCO4)C[C@H]12 [Compound I-156] | > 100 µM
15 | O=C1NC(=O)[C@@H]2CN(c3ccc4c(c3)OCO4)C[C@H]12 [Compound I-157] | > 100 µM
16 | O=C1NC(=O)[C@@H]2CN(c3ccccc3)C[C@H]12 [Compound I-158] | > 100 µM
17 | O=C1CC2(CCN(c3ccc(-c4ccccc4)c(F)c3)CC2)CC(=O)N1 [Compound I-160] | > 100 µM

Row | Compound | IC50
18 | Cc1cccc(N2C[C@@H]3C(=O)NC(=O)[C@@H]3C2)c1 [Compound I-161] | > 100 µM
19 | COC(=O)c1ccc(N2CCC3(CC2)CC(=O)NC(=O)C3)cc1 [Compound I-162] | > 100 µM
20 | O=C1NC(=O)[C@@H]2CN(C3CCC3)C[C@H]12 [Compound I-163] | > 100 µM
21 | Cc1cccc(C(=O)N2C[C@@H]3C(=O)NC(=O)[C@@H]3C2)n1 [Compound I-164] | > 100 µM
22 | COc1cccc(C(=O)N2C[C@@H]3C(=O)NC(=O)[C@@H]3C2)n1 [Compound I-165] | > 100 µM
23 | O=C1NC(=O)[C@@H]2CN(C(=O)c3cc(C(F)(F)F)ccn3)C[C@H]12 [Compound I-166] | > 100 µM
24 | O=C1NC(=O)[C@@H]2CN(C(=O)c3ccc4ccccc4n3)C[C@H]12 [Compound I-167] | > 100 µM
25 | O=C1NC(=O)[C@@H]2CN(C(=O)c3cc4ccccc4cn3)C[C@H]12 [Compound I-168] | > 100 µM
26 | Nc1cccc(C(=O)N2C[C@@H]3C(=O)NC(=O)[C@@H]3C2)c1 [Compound I-169] | > 100 µM
27 | NC(=O)c1ccccc1N1C[C@@H]2C(=O)NC(=O)[C@@H]2C1 [Compound I-170] | > 100 µM
28 | CC(=O)Nc1ccccc1N1C[C@@H]2C(=O)NC(=O)[C@@H]2C1 [Compound I-171] | > 100 µM
29 | O=CNc1ccccc1N1C[C@@H]2C(=O)NC(=O)[C@@H]2C1 [Compound I-172] | > 100 µM
30 | Nc1ccc2c(c1)C1(CC(=O)NC1=O)C(=O)N2 (stereo not drawn) [Compound I-173] | > 100 µM
31 | O=C1CC2(C(=O)N1)C(=O)Nc1ccccc12 (stereo not drawn) [Compound I-174] | > 100 µM
32 | CNC(=O)c1cccc(N2C[C@@H]3C(=O)NC(=O)[C@@H]3C2)c1 [Compound I-177] | > 100 µM
33 | CN(C)C(=O)c1cccc(N2C[C@@H]3C(=O)NC(=O)[C@@H]3C2)c1 [Compound I-178] | > 100 µM
